Results reported in PMC4832243, “Discovery of Potent VEGFR-2 Inhibitors based on Furopyrimidine and Thienopyrimidne Scaffolds as Cancer Targeting Agents” (Scientific Reports, 2016).

Legend:
[1] = target: T1, VEGFR-2 (KDR) (Homo sapiens, UniProt P35968); assay: In vitro VEGFR-2 tyrosine kinase activity (Kinase-Glo Plus luminescence, BPS Bioscience); type: biochemical; settings: single dose concentration of 10 μM
T1 construct: purchased BPS Bioscience 40301

[2] = tested on: CCRF-CEM; assay: NCI 60 cell line panel (SRB), CCRF-CEM; type: cell-based; settings: Homo sapiens, Leukemia, single dose of 10 μM, read-out: Cell Growth Percent
[3] = tested on: K-562; assay: NCI 60 cell line panel (SRB), K-562; type: cell-based; settings: Homo sapiens, K562; K-562, Leukemia; single dose of 10 μM; read-out: Cell Growth Percent
[4] = tested on: MOLT-4; assay: NCI 60 cell line panel (SRB), MOLT-4; type: cell-based; settings: Homo sapiens; MOLT-4, Leukemia; single dose of 10 μM; read-out: Cell Growth Percent
[5] = tested on: HOP-92; assay: NCI 60 cell line panel (SRB), HOP-92; type: cell-based; settings: Homo sapiens; HOP-92, Non-Small Cell Lung Cancer; single dose of 10 μM; read-out: Cell Growth Percent
[6] = tested on: NCI-H23; assay: NCI 60 cell line panel (SRB), NCI-H23; type: cell-based; settings: Homo sapiens; NCI-H23, Non-Small Cell Lung Cancer; single dose of 10 μM; read-out: Cell Growth Percent
[7] = tested on: NCI-H322M; assay: NCI 60 cell line panel (SRB), NCI-H322M; type: cell-based; settings: Homo sapiens, Non-Small Cell Lung Cancer, single dose of 10 μM, read-out: Cell Growth Percent
[8] = tested on: HCT-116; assay: NCI 60 cell line panel (SRB), HCT-116; type: cell-based; settings: Homo sapiens; HCT-116, Colon Cancer; single dose of 10 μM; read-out: Cell Growth Percent
[9] = tested on: KM12; assay: NCI 60 cell line panel (SRB), KM12; type: cell-based; settings: Homo sapiens; KM12, Colon Cancer; single dose of 10 μM; read-out: Cell Growth Percent
[10] = tested on: SF-268; assay: NCI 60 cell line panel (SRB), SF-268; type: cell-based; settings: Homo sapiens; SF-268, CNS Cancer; single dose of 10 μM; read-out: Cell Growth Percent
[11] = tested on: SF-539; assay: NCI 60 cell line panel (SRB), SF-539; type: cell-based; settings: Homo sapiens; SF-539, CNS Cancer; single dose of 10 μM; read-out: Cell Growth Percent
[12] = tested on: MALME-3M; assay: NCI 60 cell line panel (SRB), MALME-3M; type: cell-based; settings: Homo sapiens, Melanoma, single dose of 10 μM, read-out: Cell Growth Percent
[13] = tested on: UACC-62; assay: NCI 60 cell line panel (SRB), UACC-62; type: cell-based; settings: Homo sapiens; UACC-62, Melanoma; single dose of 10 μM; read-out: Cell Growth Percent
[14] = tested on: IGROV1; assay: NCI 60 cell line panel (SRB), IGROV1; type: cell-based; settings: Homo sapiens, IGROV-1; IGROV1, Ovarian Cancer; single dose of 10 μM; read-out: Cell Growth Percent
[15] = tested on: OVCAR-3; assay: NCI 60 cell line panel (SRB), OVCAR-3; type: cell-based; settings: Homo sapiens; OVCAR-3, Ovarian Cancer; single dose of 10 μM; read-out: Cell Growth Percent
[16] = tested on: NCI/ADR-RES; assay: NCI 60 cell line panel (SRB), NCI/ADR-RES; type: cell-based; settings: Homo sapiens, Ovarian Cancer, single dose of 10 μM, read-out: Cell Growth Percent
[17] = tested on: SK-OV-3; assay: NCI 60 cell line panel (SRB), SK-OV-3; type: cell-based; settings: Homo sapiens; SK-OV-3, Ovarian Cancer; single dose of 10 μM; read-out: Cell Growth Percent
[18] = tested on: 786-0; assay: NCI 60 cell line panel (SRB), 786-0; type: cell-based; settings: Homo sapiens; 786-0, Renal Cancer; single dose of 10 μM; read-out: Cell Growth Percent
[19] = tested on: A498; assay: NCI 60 cell line panel (SRB), A498; type: cell-based; settings: Homo sapiens; A498, Renal Cancer; single dose of 10 μM; read-out: Cell Growth Percent
[20] = tested on: RXF 393; assay: NCI 60 cell line panel (SRB), RXF 393; type: cell-based; settings: Homo sapiens; RXF 393, Renal Cancer; single dose of 10 μM; read-out: Cell Growth Percent
[21] = tested on: TK-10; assay: NCI 60 cell line panel (SRB), TK-10; type: cell-based; settings: Homo sapiens; TK-10, Renal Cancer; single dose of 10 μM; read-out: Cell Growth Percent
[22] = tested on: BT-549; assay: NCI 60 cell line panel (SRB), BT-549; type: cell-based; settings: Homo sapiens; BT-549, Breast Cancer; single dose of 10 μM; read-out: Cell Growth Percent
[23] = tested on: MDA-MB-468; assay: NCI 60 cell line panel (SRB), MDA-MB-468; type: cell-based; settings: Homo sapiens; MDA-MB-468, Breast Cancer; single dose of 10 μM; read-out: Cell Growth Percent

T1 sequence (P35968 20-1356): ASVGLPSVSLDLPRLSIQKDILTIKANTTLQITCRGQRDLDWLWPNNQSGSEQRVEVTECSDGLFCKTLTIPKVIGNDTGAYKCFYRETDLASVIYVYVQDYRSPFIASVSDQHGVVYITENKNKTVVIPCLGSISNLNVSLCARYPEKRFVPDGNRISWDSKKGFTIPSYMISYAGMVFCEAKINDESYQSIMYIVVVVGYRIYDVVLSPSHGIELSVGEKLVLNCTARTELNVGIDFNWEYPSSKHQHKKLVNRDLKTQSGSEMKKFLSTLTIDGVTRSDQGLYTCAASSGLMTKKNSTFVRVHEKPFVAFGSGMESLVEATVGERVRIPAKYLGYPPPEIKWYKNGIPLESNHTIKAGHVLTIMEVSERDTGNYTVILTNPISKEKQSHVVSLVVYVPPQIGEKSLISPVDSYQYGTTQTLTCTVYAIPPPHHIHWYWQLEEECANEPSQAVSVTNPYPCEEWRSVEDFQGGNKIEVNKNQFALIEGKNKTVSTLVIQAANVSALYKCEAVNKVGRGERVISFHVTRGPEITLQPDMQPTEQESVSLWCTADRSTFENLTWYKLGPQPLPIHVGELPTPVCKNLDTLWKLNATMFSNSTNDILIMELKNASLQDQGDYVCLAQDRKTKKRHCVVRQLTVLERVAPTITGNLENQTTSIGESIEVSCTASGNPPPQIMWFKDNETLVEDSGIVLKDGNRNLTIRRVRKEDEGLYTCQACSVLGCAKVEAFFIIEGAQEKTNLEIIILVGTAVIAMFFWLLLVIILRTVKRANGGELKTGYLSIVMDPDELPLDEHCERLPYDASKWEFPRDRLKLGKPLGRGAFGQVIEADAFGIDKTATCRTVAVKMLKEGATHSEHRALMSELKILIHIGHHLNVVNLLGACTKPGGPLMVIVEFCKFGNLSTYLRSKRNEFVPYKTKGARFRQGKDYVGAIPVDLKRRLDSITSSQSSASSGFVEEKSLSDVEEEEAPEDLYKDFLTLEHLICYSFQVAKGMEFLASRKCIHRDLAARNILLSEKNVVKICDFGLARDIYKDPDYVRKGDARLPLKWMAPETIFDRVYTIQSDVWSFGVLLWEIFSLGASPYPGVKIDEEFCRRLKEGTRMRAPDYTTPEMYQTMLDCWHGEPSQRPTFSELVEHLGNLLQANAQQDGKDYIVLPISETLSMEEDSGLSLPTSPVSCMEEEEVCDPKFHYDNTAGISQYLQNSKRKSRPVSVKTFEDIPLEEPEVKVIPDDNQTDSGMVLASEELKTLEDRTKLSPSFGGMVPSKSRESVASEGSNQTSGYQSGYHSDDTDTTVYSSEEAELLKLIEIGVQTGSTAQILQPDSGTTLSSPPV

Compound	inhibition at 10 µM [1] [%]	activity at 10 µM [2] [%]	activity at 10 µM [3] [%]	activity at 10 µM [4] [%]	activity at 10 µM [5] [%]	activity at 10 µM [6] [%]	activity at 10 µM [7] [%]	activity at 10 µM [8] [%]	activity at 10 µM [9] [%]	activity at 10 µM [10] [%]	activity at 10 µM [11] [%]	activity at 10 µM [12] [%]	activity at 10 µM [13] [%]	activity at 10 µM [14] [%]	activity at 10 µM [15] [%]	activity at 10 µM [16] [%]	activity at 10 µM [17] [%]	activity at 10 µM [18] [%]	activity at 10 µM [19] [%]	activity at 10 µM [20] [%]	also measured
CCOC(=O)c1c(C)oc2ncnc(Nc3ccc(C(=O)Nc4cccc(Cl)c4)cc3)c12 [Compound 14a]	5	93.8	87	94	92	100	99.7	85.5	93.8	103	107	122	67.6	105	110	99.4	112	96.3	92.4	76.8	activity at 10 µM [21]: 102%; activity at 10 µM [22]: 87.6%; activity at 10 µM [23]: 90.9%; melting point: 226 to 230 °C
O=C(Nc1ccc(Nc2ncnc3sc4c(c23)CCCC4)cc1)Nc1cccc(Cl)c1 [Compound 20d]	19	97.7	110	92.3	102	103	104	112	105	106	90.8	97.9	106	113	110	113	98.6	103	86.7	115	activity at 10 µM [21]: 108%; activity at 10 µM [22]: 100%; activity at 10 µM [23]: 110%
O=C(Nc1ccccc1)Nc1ccc(Nc2ncnc3sc4c(c23)CCCC4)cc1 [Compound 20a]	39	92.3	99.7	89.4	100	100	106	114	102	100	104	102	97.8	107	103	107	99.5	110	83.3	102	activity at 10 µM [21]: 124%; activity at 10 µM [22]: 109%; activity at 10 µM [23]: 96.8%
CCOC(=O)c1c(C)oc2ncnc(Nc3ccc(C(=O)Nc4ccc(OC)cc4)cc3)c12 [Compound 14b]	8	89.1	107	92.3	78.8	95.6	112	85.1	96.1	101	63.8	120	93.4	108	110	88.7	94.1	92.1	75.3	92	activity at 10 µM [21]: 102%; activity at 10 µM [22]: 61.9%; activity at 10 µM [23]: 102%; melting point: 218 to 222 °C
CCOC(=O)c1c(C)oc2ncnc(Nc3ccc(NC(=O)Nc4cccc(Cl)c4)cc3)c12 [Compound 15d]	61	31.5	67.7	49.2	50.6	64	83.5	50.7	61	86.4	16.6	81.4	69.1	78.4	80.8	43.7	93.2	79.1	63	63.6	activity at 10 µM [21]: 79.1%; activity at 10 µM [22]: 61.5%; activity at 10 µM [23]: 49.7%
CCOC(=O)c1c(C)oc2ncnc(Nc3ccc(NC(=O)Nc4ccc(CC)cc4)cc3)c12 [Compound 15i]	23	93.7	98	98.6	94.3	90.7	102	78.7	103	103	89	101	108	110	118	97.2	88.2	99.8	109	98.2	activity at 10 µM [21]: 112%; activity at 10 µM [22]: 84.4%; activity at 10 µM [23]: 128%; melting point: 242 to 246 °C
COc1cccc(NC(=O)Nc2ccc(Nc3ncnc4sc5c(c34)CCCC5)cc2)c1 [Compound 20c]	67	94.6	97.2	81.3	118	104	98.8	91	89.6	99.5	60.2	79.9	106	106	99.1	106	88.4	100	91.3	116	activity at 10 µM [21]: 129%; activity at 10 µM [22]: 85.8%; activity at 10 µM [23]: 114%; melting point: 206 to 210 °C
O=C(Nc1ccc(Cl)cc1)Nc1ccc(Oc2ncnc3sc4c(c23)CCCC4)cc1 [Compound 21d]	46	77.9	84.2	72	102	87.4	103	82.6	69.1	87	70.9	98.9	73.2	108	85.8	85	90.8	108	70.1	87.7	activity at 10 µM [21]: 88.3%; activity at 10 µM [22]: 112%; activity at 10 µM [23]: 103%; melting point: > 300 °C
CCOC(=O)c1c(C)oc2ncnc(Nc3ccc(C(=O)NCCc4ccccc4)cc3)c12 [Compound 14e]	10	80.9	88.9	105	61.5	81.8	92.9	64.7	89	74.1	58.9	89.5	94.9	102	97.2	76.9	85.5	74.9	77.5	71.7	activity at 10 µM [21]: 102%; activity at 10 µM [22]: 67.3%; activity at 10 µM [23]: 90.7%; melting point: 176 to 180 °C
